Consider 27 compounds from ChEMBL document CHEMBL1134804, “Studies leading to the identification of ZD1839 (IRESSA): an orally active, selective epidermal growth factor receptor tyrosine kinase inhibitor targeted to the treatment of cancer” (Bioorg Med Chem Lett, 2001).

One data set is described as follows: in vivo. As to conditions: mouse, po, 200 mg/kg.
A further data set concerns KB 3-1. Briefly: cells. Conditions: Homo sapiens.
Data set [1] concerns the target Epidermal growth factor receptor (Homo sapiens, UniProt P00533).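 Note: tyrosine kinase inhibition of EGFR isolated from A431 vulval squamous carcinoma cells, measured in vitro with a TKI assay.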
Description: In vitro inhibitory activity against Epidermal growth factor receptor (EGFR-TK) from A431 vulval squamous carcinoma cells using TKI assay

Epidermal growth factor receptor, sequence (P00533 whole entry): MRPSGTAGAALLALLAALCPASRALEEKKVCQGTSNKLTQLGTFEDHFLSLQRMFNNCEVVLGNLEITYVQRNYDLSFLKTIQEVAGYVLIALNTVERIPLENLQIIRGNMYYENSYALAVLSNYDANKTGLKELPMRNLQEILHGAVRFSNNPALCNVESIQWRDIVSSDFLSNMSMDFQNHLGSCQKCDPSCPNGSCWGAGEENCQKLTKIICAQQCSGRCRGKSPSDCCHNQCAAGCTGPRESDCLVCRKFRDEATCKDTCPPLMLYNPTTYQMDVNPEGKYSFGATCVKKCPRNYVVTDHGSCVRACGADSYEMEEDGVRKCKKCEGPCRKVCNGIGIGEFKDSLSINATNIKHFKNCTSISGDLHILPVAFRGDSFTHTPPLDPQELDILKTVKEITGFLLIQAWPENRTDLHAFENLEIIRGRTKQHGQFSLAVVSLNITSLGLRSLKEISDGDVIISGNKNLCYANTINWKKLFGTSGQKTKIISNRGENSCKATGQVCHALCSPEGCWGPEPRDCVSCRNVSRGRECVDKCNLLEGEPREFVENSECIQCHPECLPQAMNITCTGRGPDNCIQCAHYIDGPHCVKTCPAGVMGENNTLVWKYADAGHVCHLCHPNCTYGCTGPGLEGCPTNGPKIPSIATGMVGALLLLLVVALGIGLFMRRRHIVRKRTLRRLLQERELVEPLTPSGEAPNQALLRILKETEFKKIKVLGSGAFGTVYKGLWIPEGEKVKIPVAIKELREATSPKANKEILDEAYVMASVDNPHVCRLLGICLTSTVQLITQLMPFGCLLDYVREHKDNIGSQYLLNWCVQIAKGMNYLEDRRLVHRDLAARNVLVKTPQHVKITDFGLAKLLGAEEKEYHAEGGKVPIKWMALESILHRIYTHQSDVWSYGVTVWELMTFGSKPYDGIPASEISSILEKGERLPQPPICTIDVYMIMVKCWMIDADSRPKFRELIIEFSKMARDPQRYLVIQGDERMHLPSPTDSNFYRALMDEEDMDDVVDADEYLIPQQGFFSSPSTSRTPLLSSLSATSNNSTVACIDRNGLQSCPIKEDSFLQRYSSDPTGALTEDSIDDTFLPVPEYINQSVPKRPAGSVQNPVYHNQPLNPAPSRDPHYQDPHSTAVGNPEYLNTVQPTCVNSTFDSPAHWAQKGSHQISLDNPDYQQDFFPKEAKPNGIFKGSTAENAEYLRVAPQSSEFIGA
Description for KB 3-1: In vitro inhibitory activity against EGF-stimulated proliferation of KB2 cells in culture

Turning to `COc1cc2ncnc(Nc3ccc(F)c(Cl)c3)c2cc1OCCN1CCOCC1`, the concentration at 6 h in the data set “in vivo” is 156 µM. 380 nM corresponded to half-maximal inhibition in the data set on KB 3-1 (IC50).

As to `COc1cc2ncnc(Nc3ccc(F)c(Cl)c3)c2cc1OC[C@@H](O)CN1CCOCC1`, the results for the IC50 (in data set [1]; in the data set with KB 3-1) were 95 nM and 160 nM, respectively. The same compound displayed a concentration at 6 h in the data set “in vivo” of 23 µM.

Take `COc1cc2ncnc(Nc3ccc(F)c(Cl)c3)c2cc1OC[C@H](O)CN1CCOCC1`: the IC50 (usually the point on the concentration scale where inhibition reaches its midpoint) in data set [1] was found to be 67 nM; in the data set on KB 3-1, 130 nM. This compound gave a concentration at 6 h in “in vivo” of 15 µM.

`COc1cc2ncnc(Nc3ccc(F)c(Cl)c3)c2cc1OCCCN1CCCCC1`: the concentration at 6 h in the data set “in vivo” was determined as 5.2 µM.

For the compound `CCN(CC)CCOc1cc2c(Nc3ccc(F)c(Cl)c3)ncnc2cc1OC`, the IC50 in data set [1] stood at 93 nM; in the data set with KB 3-1 it was 310 nM. For the same compound, the concentration at 6 h in “in vivo” is 2.8 µM.

`CNCCOc1cc2c(Nc3ccc(F)c(Cl)c3)ncnc2cc1OC`: the IC50 in data set [1] stood at 8 nM; in the data set on KB 3-1, 350 nM. The same compound showed a concentration at 6 h in “in vivo” of 1.6 µM.

In “in vivo”, `COc1cc2ncnc(Nc3ccc(F)c(Cl)c3)c2cc1OCCn1ccnc1` came in with a concentration at 6 h of 164 µM.

Turning to `COCCN(CCOC)CCOc1cc2c(Nc3ccc(F)c(Cl)c3)ncnc2cc1OC`, the values for the IC50 (in data set [1]; in the data set on KB 3-1) were 61 nM and 170 nM, respectively. In addition, in “in vivo”, the concentration at 6 h came to 7.2 µM.

In “in vivo”, `COc1cc2ncnc(Nc3ccc(F)c(Cl)c3)c2cc1OCCCN1CCCC1` displayed a concentration at 6 h of 8.8 µM.

On to `COc1cc2ncnc(Nc3ccc(F)c(Cl)c3)c2cc1OCC(O)CN(CCO)CCO` (stereo not drawn), for which the IC50 came to 5 nM in data set [1] and 850 nM in the data set on KB 3-1. The compound further registered a concentration at 6 h in “in vivo” of 0.2 µM.

`COc1cc2ncnc(Nc3ccc(F)c(Cl)c3)c2cc1OCCN1CCN(C)CC1`: in “in vivo”, the concentration at 6 h worked out at 7.1 µM. In the data set with KB 3-1, the IC50 came out at 90 nM.

For `COc1cc2ncnc(Nc3ccc(F)c(Cl)c3)c2cc1OC`, in “in vivo”, the concentration at 6 h was 16 µM.

For the compound `CCN(CC)CCCOc1cc2c(Nc3ccc(F)c(Cl)c3)ncnc2cc1OC`, the concentration at 6 h in “in vivo” is 5.4 µM.

`COc1cc2ncnc(Nc3ccc(F)c(Cl)c3)c2cc1OCCNC(C)C`: the values for the IC50 (in data set [1]; in the data set with KB 3-1) were 310 nM and 220 nM, respectively. This compound showed a concentration at 6 h in “in vivo” of 0.4 µM.

For `COc1cc2ncnc(Nc3ccc(F)c(Cl)c3)c2cc1OCCNC(C)(CO)CO`, the values for the IC50 (in data set [1]; with KB 3-1) were 69 nM and 910 nM, respectively. Further, the concentration at 6 h in the data set “in vivo” amounted to 0.1 µM.

Regarding `COc1cc2ncnc(Nc3ccc(F)c(Cl)c3)c2cc1OCCN1CCCCC1`, in “in vivo”, the concentration at 6 h was determined as 16 µM.

Turning to `CNCC(O)COc1cc2c(Nc3ccc(F)c(Cl)c3)ncnc2cc1OC` (stereo not drawn), the IC50 in data set [1] was determined as 5 nM; in the data set on KB 3-1, 220 nM.

With `COc1cc2ncnc(Nc3ccc(F)c(Cl)c3)c2cc1OCC(O)CN` (stereo not drawn), in the data set “in vivo”, the concentration at 6 h worked out at 0.1 µM.

Take `COc1cc2ncnc(Nc3ccc(F)c(Cl)c3)c2cc1OCCN(CCO)CCO`: the IC50 in data set [1] is 35 nM; in the data set with KB 3-1 it was 460 nM. Further, in the data set “in vivo”, the concentration at 6 h worked out at 1 µM.

As for `COc1cc2ncnc(Nc3cccc(C)c3)c2cc1OC`, the midpoint of inhibition with KB 3-1, the IC50, lay at 50 nM.

On to `COCCNCCOc1cc2c(Nc3ccc(F)c(Cl)c3)ncnc2cc1OC`, for which the values for the IC50 (in data set [1]; in the data set on KB 3-1) were 8 nM and 180 nM, respectively. Also, in the data set “in vivo”, the concentration at 6 h stood at 11 µM.

Take `COc1cc2ncnc(Nc3ccc(F)c(Cl)c3)c2cc1OCCNCCN(C)C`: the figures for the IC50 (in data set [1]; with KB 3-1) were 2 nM and 150 nM, respectively. In “in vivo”, this compound had a concentration at 6 h of 1.1 µM.

For the compound `COc1cc2ncnc(Nc3ccc(F)c(Cl)c3)c2cc1OCCN1CCCC1`, in the data set “in vivo”, the concentration at 6 h was determined as 8.2 µM.

Turning to `COc1cc2ncnc(Nc3ccc(F)c(Cl)c3)c2cc1OCCN(C)C`, the IC50 was 7 nM in data set [1] and 120 nM in the data set on KB 3-1. The compound also yielded a concentration at 6 h in the data set “in vivo” of 52 µM.

For the compound `COc1cc2ncnc(Nc3ccc(F)c(Cl)c3)c2cc1OCCNC(C)(C)C`, the figures for the IC50 (in data set [1]; in the data set with KB 3-1) were 100 nM and 320 nM, respectively. Also, the concentration at 6 h in “in vivo” turned out to be 0.1 µM.

`COc1cc2ncnc(Nc3ccc(F)c(Cl)c3)c2cc1OCCCN(C)C` registered a concentration at 6 h in “in vivo” of 34 µM.

As to `COc1cc2ncnc(Nc3ccc(F)c(Cl)c3)c2cc1OCC(O)Cn1ccnc1` (stereo not drawn), the IC50 in data set [1] worked out at 8 nM; with KB 3-1, 380 nM. This compound also came in with a concentration at 6 h in “in vivo” of 0.04 µM.
